# According to PMC3454513 (Nature structural & molecular biology, 2012):
# B1: PHF20 Tudor2 (amino acids 84–147), disulfide cross-linked homodimer (domain or fragment, human, UniProt Q9BVI0 84-147, looked up)
# chain: SSEFQINEQVLACWSDCRFYPAKVTAVNKDGTYTVKFYDGVVQTVKHIHVKAFSKDQNIVGNAR
# modifications: disulfide bonds between Cys96 and Cys100 of subunit A and Cys100 and Cys96 of subunit B
# Assays:
# p53 = assay: Immunoblot of p53 phosphorylated at Ser15, HCT 116 cells; assay type: cell-based, human; conditions: 10 μM doxorubicin or 100 μM etoposide for 4 h
# [1] = system: PHF20 Tudor2 and Tudor1-2; assay type: binding, human; conditions: peptide array (Supplementary Fig. 1)
# mass spectrometry = biological target: the molecule itself; assay: mass spectrometry
Molecule,interaction with PHF20 among the four known methylated forms of p53 [1],also measured
COc1cccc2c1C(=O)c1c(O)c3c(c(O)c1C2=O)C[C@@](O)(C(=O)CO)C[C@@H]3O[C@H]1C[C@H](N)[C@H](O)[C@H](C)O1 [doxorubicin],,phosphorylation of p53 at Ser15 (p53): induced phosphorylation of p53 at Ser15
p53K370me2: Cy3-labeled 18-amino acid p53 peptide dimethylated at Lys370,strongest interaction,
p53K382me2: Cy3-labeled 18-amino acid p53 peptide dimethylated at Lys382,strongest interaction,
B1,,stoichiometry N (mass spectrometry): 2
